Legend:
IGF1R [1] = biological target: T1, IGF1R (Homo sapiens, UniProt P08069); test: Biochemical assay for inhibitors of IGF-1R kinase activity (trans-phosphorylation, 33P-ATP, Dowex); set-up: amino acid residues 960-1367 of precursor protein; made in house; host or cells: H5 insect cells (baculovirus; virus produced in Sf21 cells); conditions: read-out: IGF1R IC50 (μM) Biochemical assay
Description: Human cDNA was used as template for amplification by polymerase chain reaction (PCR) of the predicted cytoplasmic portion of IGF-1R (amino acid residues 960-1367 of precursor protein; see NCBI Entrez Protein Accession #P08069) which includes the entire kinase domain. PCR was conducted using the forward primer sequence 5′-[…]-3′ (SEQ ID NO:1) and the reverse primer sequence 5′-[…]-3′ (SEQ ID NO:2). In order to facilitate subsequent cloning steps, both primers comprise a BamHI restriction endonuclease site sequence. This PCR product was cloned in frame using BamHI sticky ends into a transfer vector for the baculovirus expression system, pVL1392 (Pharmingen), previously modified by insertion into the pVL1392 multiple cloning site of sequences encoding Glutathione S-transferase (GST) fusion protein, PreScission protease cleavage site and partial MCS cassette derived from the pGex-6P plasmid (Amersham BioSciences). Insertion of the IGF-1R PCR product described above into the pGex-6P derived BamHI site of the modified pVL1392 vector results in an open reading frame corresponding to the pGEX-6P GST protein and PreScission peptide fused with the human IGF-1R cytoplasmic domain. In order to obtain fusion protein, Sf21 insect cells (Invitrogen) are cotransfected with 2 microg of purified plasmid and 1 microg of virus DNA (BaculoGold™ Transfection Kit, Pharmingen), as described in the Baculovirus Instruction manual (Pharmingen). A first amplification of the virus is performed using 600 microL of cotransfected virus on 6×10^6 Sf21 in a monolayer culture, in 12 mL of medium (TNM-FH Grace's medium—Pharmingen). After 3 days the medium is collected, centrifuged and transferred to a sterile tube. A second amplification is prepared with the same method using 2 mL on 3×10^7 cells, diluted in 40 mL of medium. For the third amplification of virus, 1 mL of supernatant from the second round are used per 3×10^7 cells diluted in 40 mL of medium. […]
The inhibitory activity of putative kinase inhibitors and the potency of selected compounds were determined using a trans-phosphorylation assay. […]
Target sequence in this assay (P08069 960-1367): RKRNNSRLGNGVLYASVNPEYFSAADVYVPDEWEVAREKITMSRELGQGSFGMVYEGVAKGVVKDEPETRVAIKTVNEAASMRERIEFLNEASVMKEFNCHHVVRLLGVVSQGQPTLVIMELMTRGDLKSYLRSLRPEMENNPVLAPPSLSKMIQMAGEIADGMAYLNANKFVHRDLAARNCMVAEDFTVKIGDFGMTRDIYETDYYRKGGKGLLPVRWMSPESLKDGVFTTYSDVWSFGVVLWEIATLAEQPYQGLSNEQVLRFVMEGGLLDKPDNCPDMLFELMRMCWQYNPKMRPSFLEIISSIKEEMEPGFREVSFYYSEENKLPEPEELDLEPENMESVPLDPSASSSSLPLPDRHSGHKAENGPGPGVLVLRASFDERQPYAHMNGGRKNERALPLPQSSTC

IGF1R [2] = biological target: T1, IGF1R; test: Western blot analysis of receptor phosphorylation following stimulation with IGF-1 in MCF-7 human breast cancer cells; format: cell-based; set-up: endogenous in cells; host or cells: MCF-7 (ATCC#HTB-22); conditions: starved MCF-7 cells, increasing concentrations of compound, then 10 nM IGF1; pIGF1R band, FIG. 1
Description: [formula] where νb is the baseline velocity, ν is the observed reaction velocity, ν0 is the velocity in the absence of inhibitors, and [I] is the inhibitor concentration. Cell-Based Assays for Inhibitors of IGF-1R Kinase Activity Western Blot Analysis of Receptor Phosphorylation Following Stimulation with IGF-1 in MCF-7 Human Breast Cancer Cells
MCF-7 cells (ATCC#HTB-22) were seeded in 12-well tissue culture plates at 2×10^5 cells/well in E-MEM medium (MEM+Earle's BSS+2 mM glutamine+0.1 mM non-essential amino acids)+10% FCS, and incubated overnight at 37° C., 5% CO2, 100% relative humidity. Cells were then starved by replacing E-MEM+10% FCS with E-MEM+0.1% BSA, and incubating overnight. After this incubation, wells were treated with desired concentrations of compound for 1 hour at 37° C., and were then stimulated with 10 nM recombinant human IGF-1 (Invitrogen, Carlsbad, Calif., USA) for 10 minutes at 37° C. Cells were then washed with PBS and lysed in 100 microL/well cell lysis buffer (M-PER Mammalian Protein Extraction Reagent [Product #78501, Pierce, Rockford, Ill., USA]+10 mM EDTA+Protease inhibitor cocktail [Sigma-Aldrich product #P8340]+phosphatase inhibitor cocktail [Sigma-Aldrich products #P2850+#P5726]). Cell lysates were cleared by centrifugation at 10,000×g for 5 minutes, and 10 microg/lane of cleared lysate protein were run on NuPAGE gels (NuPAGE 4-12% 10-lane Bis-Tris gels, Invitrogen) with MOPS running buffer, then transferred onto Hybond-ECL nitrocellulose filters (Amersham Biosciences, Little Chalfont, Buckinghamshire, UK) using Mini PROTEAN II chambers (Bio-Rad Laboratories, Hercules, Calif., USA). […]
Target sequence in this assay (P08069 31-1367): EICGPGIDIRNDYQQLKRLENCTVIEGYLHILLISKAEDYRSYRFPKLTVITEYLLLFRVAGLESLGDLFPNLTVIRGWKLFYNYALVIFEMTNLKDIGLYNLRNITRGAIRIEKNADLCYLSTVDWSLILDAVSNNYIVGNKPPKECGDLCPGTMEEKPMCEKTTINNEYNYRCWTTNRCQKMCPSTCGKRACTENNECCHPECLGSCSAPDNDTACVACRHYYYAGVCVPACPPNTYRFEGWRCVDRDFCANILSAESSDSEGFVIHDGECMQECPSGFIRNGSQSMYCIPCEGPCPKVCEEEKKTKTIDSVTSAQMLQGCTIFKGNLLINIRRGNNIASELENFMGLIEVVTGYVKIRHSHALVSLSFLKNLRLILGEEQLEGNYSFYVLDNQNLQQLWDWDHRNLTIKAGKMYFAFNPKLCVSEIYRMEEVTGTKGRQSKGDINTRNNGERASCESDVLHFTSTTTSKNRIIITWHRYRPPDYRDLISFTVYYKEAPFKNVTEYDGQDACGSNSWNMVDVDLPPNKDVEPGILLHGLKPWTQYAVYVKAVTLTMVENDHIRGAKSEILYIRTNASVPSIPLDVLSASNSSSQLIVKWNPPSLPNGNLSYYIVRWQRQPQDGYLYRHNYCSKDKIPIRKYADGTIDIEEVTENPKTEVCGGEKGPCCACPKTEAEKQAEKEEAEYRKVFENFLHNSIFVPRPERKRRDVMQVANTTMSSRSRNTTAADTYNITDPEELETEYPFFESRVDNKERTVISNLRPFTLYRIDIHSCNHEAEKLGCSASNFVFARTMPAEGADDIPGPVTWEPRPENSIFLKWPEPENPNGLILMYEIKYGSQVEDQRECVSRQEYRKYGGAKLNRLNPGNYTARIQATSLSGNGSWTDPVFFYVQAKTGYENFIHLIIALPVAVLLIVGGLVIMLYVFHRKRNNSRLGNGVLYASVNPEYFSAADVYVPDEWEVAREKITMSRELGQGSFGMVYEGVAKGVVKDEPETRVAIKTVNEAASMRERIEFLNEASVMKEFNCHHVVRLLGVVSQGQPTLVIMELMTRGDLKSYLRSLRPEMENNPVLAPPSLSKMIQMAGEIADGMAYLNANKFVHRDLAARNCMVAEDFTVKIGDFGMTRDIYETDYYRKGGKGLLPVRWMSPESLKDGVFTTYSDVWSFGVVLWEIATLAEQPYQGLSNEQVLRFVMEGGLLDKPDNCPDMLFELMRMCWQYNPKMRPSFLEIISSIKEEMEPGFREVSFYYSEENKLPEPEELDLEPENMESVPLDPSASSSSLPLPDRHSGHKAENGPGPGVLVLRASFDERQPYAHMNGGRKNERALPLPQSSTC

[3] = test system: IGF1-induced S6 phosphorylation; test: Growth factor induced S6 ribosomal protein phosphorylation in primary human fibroblasts; format: cell-based; conditions: normal human dermal fibroblasts (NHDF), 10 nM IGF-1; read-out: Inhibition of IGF1-induced S6 phosphorylation IC50
Description: Growth Factor Induced […] Ribosomal Protein Phosphorylation in Primary Human Fibroblasts.
Phosphorylation of S6 ribosomal protein in response to growth factor stimulation of normal human dermal fibroblasts (NHDF) was used to assess compound potency in inhibiting IGF-1 induced signal transduction in cells, and selectivity towards EGF and PDGF stimulus. NHDF cells obtained from PromoCell (Heidelberg, Germany), were maintained at 37° C. in a humidified atmosphere with 5% CO2 in complete Fibroblast Growth Medium (PromoCell). For assay, NHDF were seeded in 384-well tissue culture plates (clear- and flat-bottomed black plates; Matrix Technologies Inc., Hudson, N.H., USA) at a density of 5000 cells/well in serum-free medium containing 0.1% bovine serum albumin (BSA) and incubated for 5 days. Starved cells were treated for 1 hour with desired doses of compounds and then stimulated for a further 2 hours with either 10 nM IGF-1 (Invitrogen Corp., CA, USA), 10 nM EGF (Gibco BRL, USA) or 1 nM PDGF-B/B (Roche Diagnostics GmbH, Germany). Cells were then fixed in PBS/3.7% paraformaldehyde for 20 minutes at room temperature, washed ×2 with PBS, and permeabilized with PBS/0.3% Triton X-100 for 15 minutes. Wells were then saturated with PBS/1% non-fat dry milk (Bio-Rad Laboratories, Hercules, Calif., USA) for 1 hour, and then probed for 1 hour at 37° C. with anti-phospho-S6 (Ser 235/236) antibody (Cell Signaling Technology, Beverly, Mass., USA, cat. #2211) at 1/200 dilution in PBS/1% milk/0.3% Tween 20. […] Fluorescence images in the DAPI and Cy5™ channels were automatically acquired, stored and analysed using a Cellomics ArrayScan™ IV instrument (Cellomics, Pittsburgh, USA); the Cellomics Cytotoxicity Algorithm was used to quantify cytoplasmic fluorescence associated with phospho-S6 (Cy5™ signal parameter: “Mean Lyso Mass-pH”) for each cell in 10 fields/well, and eventually expressed as a mean population value. […]

| IC50 (IGF1R [1]) [µM] | SMILES | inhibition of IGF1R auto-phosphorylation (IGF1R [2]) | IC50 [3] [nM] |
| --- | --- | --- | --- |
| 0.049 | CN1CCN(c2ccc(C(=O)Nc3n[nH]c4c3CN(S(=O)(=O)c3cc(F)cc(F)c3)CC4)c(NC(=O)c3ccc[nH]3)c2)CC1 [Compound 28, 1H-Pyrrole-2-carboxylic acid [2-[5-(3,5-difluoro-benzenesulfonyl)-4,5,6,7-tetrahydro-1H-pyrazolo[4,3-c]pyridin-3-ylcarbamoyl]-5-(4-methyl-piperazin-1-yl)-phenyl]-amide] | inhibition of IGF1-induced IGF1R auto-phosphorylation | 80 |
| 0.055 | CN1CCN(c2ccc(C(=O)Nc3n[nH]c4c3CN(S(=O)(=O)c3cc(F)cc(F)c3)CC4)c(NCc3ccco3)c2)CC1 [Compound 52, N-[5-(3,5-Difluoro-benzenesulfonyl)-4,5,6,7-tetrahydro-1H-pyrazolo[4,3-c]pyridin-3-yl]-2-[(furan-2-ylmethyl)-amino]-4-(4-methyl-piperazin-1-yl)-benzamide] | inhibition of IGF1-induced IGF1R auto-phosphorylation | 640 |
| 0.14 | CN1CCN(c2ccc(C(=O)Nc3n[nH]c4c3CN(S(=O)(=O)c3cc(F)cc(F)c3)CC4(C)C)c(NC(=O)C3CCOCC3)c2)CC1 [Compound 293, Tetrahydro-pyran-4-carboxylic acid [2-[5-(3,5-difluoro-benzenesulfonyl)-7,7-dimethyl-4,5,6,7-tetrahydro-1H-pyrazolo[4,3-c]pyridin-3-ylcarbamoyl]-5-(4-methyl-piperazin-1-yl)-phenyl]-amide] | inhibition of IGF1-induced IGF1R auto-phosphorylation | 280 |
